Experiments:
[1] = Example 3 urinary pharmacokinetics, normal hepatic function vs hepatic impairment; type: in vivo, human; settings: subjects with hepatic impairment, 32 hours post administration
Experimental: Urine was collected prior to dosing and from 0-2, 2-4, 4-8, 8-12, 12-24, and 24-32 hours after beginning of dose application. […] Urinary pharmacokinetic parameters included total urinary recovery (μg), urinary recovery as a percentage of dose, and CLr.

[2] = Example 2 plasma pharmacokinetics, normal renal function vs severe renal impairment; settings: for AUC(0-t) / AUC(0-inf) / Cmax / Tmax / half-life: both, human, 160 mg
[3] = normal renal function, single intranasal 160 mg cocaine HCl, plasma
[4] = severe renal impairment vs normal renal function, ANOVA
[5] = severe renal impairment, single intranasal 160 mg cocaine HCl, plasma

COC(=O)[C@H]1[C@@H](OC(=O)c2ccccc2)C[C@@H]2CC[C@H]1N2C [Cocaine, cocaine, reference compound]
0-32 h Urinary Recovery (median) [1]: 193.5 µg | CL/F (Geometric Least Squares Mean, ANOVA) ([2]; Impaired renal function (severe), single intranasal 160 mg cocaine HCl): 1333 L/h | AUC(0-t) ([2]; plasma, inhaled or intranasal, AUC0→t (Geometric mean), normal renal function, single intranasal 160 mg cocaine HCl): 78.7 ng·h/mL | AUC(0-t) ([2]; plasma, inhaled or intranasal, AUC0→t (Geometric mean), severe renal impairment, single intranasal 160 mg cocaine HCl): 106 ng·h/mL | AUC(0-t) ([2]; plasma, inhaled or intranasal, AUC0→t (Mean), normal renal function, single intranasal 160 mg cocaine HCl): 83.5 ng·h/mL | AUC(0-t) ([2]; plasma, inhaled or intranasal, AUC0→t (Mean), severe renal impairment, single intranasal 160 mg cocaine HCl): 119 ng·h/mL | AUC(0-t) ([2]; plasma, inhaled or intranasal, AUC0→t (Median), normal renal function, single intranasal 160 mg cocaine HCl): 91.6 ng·h/mL | AUC(0-t) ([2]; plasma, inhaled or intranasal, AUC0→t (Median), severe renal impairment, single intranasal 160 mg cocaine HCl): 109 ng·h/mL | AUC(0-inf) ([2]; plasma, inhaled or intranasal, AUC0→∞ (Geometric mean), normal renal function, single intranasal 160 mg cocaine HCl): 80.5 ng·h/mL | AUC(0-inf) ([2]; plasma, inhaled or intranasal, AUC0→∞ (Geometric mean), severe renal impairment, single intranasal 160 mg cocaine HCl): 107 ng·h/mL | AUC(0-inf) ([2]; plasma, inhaled or intranasal, AUC0→∞ (Mean), normal renal function, single intranasal 160 mg cocaine HCl): 85 ng·h/mL | AUC(0-inf) ([2]; plasma, inhaled or intranasal, AUC0→∞ (Mean), severe renal impairment, single intranasal 160 mg cocaine HCl): 120 ng·h/mL | AUC(0-inf) ([2]; plasma, inhaled or intranasal, AUC0→∞ (Median), normal renal function, single intranasal 160 mg cocaine HCl): 92.9 ng·h/mL | AUC(0-inf) ([2]; plasma, inhaled or intranasal, AUC0→∞ (Median), severe renal impairment, single intranasal 160 mg cocaine HCl): 110 ng·h/mL | AUC(0-t) ([2]; plasma, inhaled or intranasal, AUClast (Geometric Least Squares Mean, ANOVA), Impaired renal function (severe), single intranasal 160 mg cocaine HCl): 106 ng·h/mL | AUC(0-t) ([2]; plasma, inhaled or intranasal, AUClast (Geometric Least Squares Mean, ANOVA), Normal renal function, single intranasal 160 mg cocaine HCl): 78.7 ng·h/mL | Cmax ([2]; plasma, inhaled or intranasal, Cmax (Geometric Least Squares Mean, ANOVA), Impaired renal function (severe), single intranasal 160 mg cocaine HCl): 47.9 ng/mL | Cmax ([2]; plasma, inhaled or intranasal, Cmax (Geometric Least Squares Mean, ANOVA), Normal renal function, single intranasal 160 mg cocaine HCl): 35.9 ng/mL | Cmax ([2]; plasma, inhaled or intranasal, Cmax (Geometric mean), normal renal function, single intranasal 160 mg cocaine HCl): 35.9 ng/mL | Cmax ([2]; plasma, inhaled or intranasal, Cmax (Geometric mean), severe renal impairment, single intranasal 160 mg cocaine HCl): 47.9 ng/mL | Cmax ([2]; plasma, inhaled or intranasal, Cmax (Mean), normal renal function, single intranasal 160 mg cocaine HCl): 38.1 ng/mL | Cmax ([2]; plasma, inhaled or intranasal, Cmax (Mean), severe renal impairment, single intranasal 160 mg cocaine HCl): 57.8 ng/mL | Cmax ([2]; plasma, inhaled or intranasal, Cmax (Median), normal renal function, single intranasal 160 mg cocaine HCl): 37 ng/mL | Cmax ([2]; plasma, inhaled or intranasal, Cmax (Median), severe renal impairment, single intranasal 160 mg cocaine HCl): 55.4 ng/mL | Cmax ([2]; plasma, inhaled or intranasal, Cmax, range observed, renally impaired patients, soaked absorbent articles on nasal mucous membranes): 21.9 to 93.7 ng/mL | Tmax ([2]; plasma, inhaled or intranasal, Tmax (Geometric mean), normal renal function, single intranasal 160 mg cocaine HCl): 0.518 h | Tmax ([2]; plasma, inhaled or intranasal, Tmax (Geometric mean), severe renal impairment, single intranasal 160 mg cocaine HCl): 0.429 h | Tmax ([2]; plasma, inhaled or intranasal, Tmax (Mean), normal renal function, single intranasal 160 mg cocaine HCl): 0.583 h | Tmax ([2]; plasma, inhaled or intranasal, Tmax (Mean), severe renal impairment, single intranasal 160 mg cocaine HCl): 0.448 h | Tmax ([2]; plasma, inhaled or intranasal, Tmax (Median), severe renal impairment, single intranasal 160 mg cocaine HCl): 0.417 h | Tmax ([2]; plasma, inhaled or intranasal, median Tmax, normal renal function, single intranasal 160 mg cocaine HCl): 0.5 h | half-life ([2]; plasma, inhaled or intranasal, t1/2 (Geometric mean), normal renal function, single intranasal 160 mg cocaine HCl): 4.12 h | half-life ([2]; plasma, inhaled or intranasal, t1/2 (Geometric mean), severe renal impairment, single intranasal 160 mg cocaine HCl): 5.42 h | half-life ([2]; plasma, inhaled or intranasal, t1/2 (Mean), normal renal function, single intranasal 160 mg cocaine HCl): 5 h | half-life ([2]; plasma, inhaled or intranasal, t1/2 (Mean), severe renal impairment, single intranasal 160 mg cocaine HCl): 6.02 h | half-life ([2]; plasma, inhaled or intranasal, t1/2 (Median), normal renal function, single intranasal 160 mg cocaine HCl): 3.89 h | half-life ([2]; plasma, inhaled or intranasal, t1/2 (Median), severe renal impairment, single intranasal 160 mg cocaine HCl): 6.39 h | AUC(0-inf) ([2]; plasma, other: intranasal (drug-soaked pledgets in the nasal cavity), AUCinf, range observed, renally impaired patients): 61.2 to 180 ng·h/mL | Tmax ([2]; plasma, other: intranasal (drug-soaked pledgets in the nasal cavity), Tmax, range observed, renally impaired patients): 0.301 to 0.595 h | CL/F (Geometric Least Squares Mean, ANOVA) ([2]; normal renal function, single intranasal 160 mg cocaine HCl): 1774 L/h | AUC0→t (Max) [2, 3]: 109.9 ng·h/mL | AUC0→t (Min) [2, 3]: 34.29 ng·h/mL | AUC0→∞ (Max) [2, 3]: 110.3 ng·h/mL | AUC0→∞ (Min) [2, 3]: 37.67 ng·h/mL | Clast (Geometric mean) [2, 3]: 0.209 ng/mL | Clast (Max) [2, 3]: 0.626 ng/mL | Clast (Mean) [2, 3]: 0.263 ng/mL | Clast (Median) [2, 3]: 0.154 ng/mL | Clast (Min) [2, 3]: 0.114 ng/mL | Cmax (Max) [2, 3]: 62.7 ng/mL | Cmax (Min) [2, 3]: 16.7 ng/mL | Tlast (Geometric mean) [2, 3]: 20.6 h | Tlast (Max) [2, 3]: 32.0 h | Tlast (Mean) [2, 3]: 22.5 h | Tlast (Median) [2, 3]: 24.0 h | Tlast (Min) [2, 3]: 720 min | Tmax (Max) [2, 3]: 1.500 h | t1/2 (Max) [2, 3]: 10.67 h | t1/2 (Min) [2, 3]: 124 min | CL/F, percent lower than in normal subjects ([2]; renal impairment vs normal renal function): approximately 25% | plasma exposure (geometric mean Cmax, AUC), percent higher than in normal subjects ([2]; severe renal impairment vs normal renal function): approximately 33% | AUClast Ratio Impaired/Normal [2, 4]: 134.46% | CL/F Ratio Impaired/Normal [2, 4]: 75.13% | Cmax Ratio Impaired/Normal [2, 4]: 133.28% | AUC0→t (Max) [2, 5]: 221 ng·h/mL | AUC0→t (Min) [2, 5]: 43.0 ng·h/mL | AUC0→∞ (Max) [2, 5]: 227 ng·h/mL | AUC0→∞ (Min) [2, 5]: 44.2 ng·h/mL | Clast (Geometric mean) [2, 5]: 0.159 ng/mL | Clast (Max) [2, 5]: 0.432 ng/mL | Clast (Mean) [2, 5]: 0.186 ng/mL | Clast (Median) [2, 5]: 0.131 ng/mL | Clast (Min) [2, 5]: 0.102 ng/mL | Cmax (Max) [2, 5]: 131.0 ng/mL | Cmax (Min) [2, 5]: 14.1 ng/mL | Tlast (Geometric mean) [2, 5]: 26.9 h | Tlast (Max) [2, 5]: 32.0 h | Tlast (Mean) [2, 5]: 28.0 h | Tlast (Median) [2, 5]: 32.0 h | Tlast (Min) [2, 5]: 720 min | t1/2 (Max) [2, 5]: 8.65 h | t1/2 (Min) [2, 5]: 91.8 min
